This note sets out measurements from the supplement of paper PMC10307832.

What all share (assay): relative viability (nuclei count vs DMSO), 5 days (fraction); higher = more cells survive
Compound in experiment [1]: CC(C)C[C@@H](C(=O)N[C@H](C(=O)OC1CCCC1)c1ccccc1)[C@H](O)C(=O)NO [Tosedostat] + CC(C)C[C@H](NC(=O)[C@H](Cc1ccccc1)NC(=O)c1cnccn1)B(O)O [Bortezomib] (partner 0.002 µM)
The method, boiled down: (§1)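 Cells from lung cancer lines were seeded into 1536-well plates and, one day later, dosed by pin tool. Treatments were either a single drug or a fixed dose of an anchor drug with five library-drug doses (not always all listed) in √10 steps. After 5 days, nuclei were stained in a one-step fixation (final 0.05% Triton X-100, 1% formaldehyde, 1 ug/ml Hoechst) and counted on 4× images, and relative viability is the treated-to-vehicle nuclei ratio, as the median of duplicate plates.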

Compound in experiment [2]: CC1=NN=C(O1)C2=NN=C(C=C2)N3CCC(CC3)OC4=C(C=CC(=C4)F)Cl + Cc1nc(Nc2ncc(C(=O)Nc3c(C)cccc3Cl)s2)cc(N2CCN(CCO)CC2)n1 [Dasatinib] (partner 0.075 µM)
The method, boiled down:
as §1

Compound in experiment [3]: CC(C)C[C@@H](C(=O)N[C@H](C(=O)OC1CCCC1)c1ccccc1)[C@H](O)C(=O)NO [Tosedostat] + O=C(c1cc(Cc2n[nH]c(=O)c3ccccc23)ccc1F)N1CCN(C(=O)C2CC2)CC1 [Olaparib] (partner 8 µM)
The method in brief: as §1

Compound in experiment [4]: CC(C)C[C@@H](C(=O)N[C@H](C(=O)OC1CCCC1)c1ccccc1)[C@H](O)C(=O)NO [Tosedostat] + CS(=O)(=O)N1CCN(Cc2cc3nc(-c4cccc5[nH]ncc45)nc(N4CCOCC4)c3s2)CC1 [Pictilisib] (partner 1 µM)
The method, boiled down:
as §1

Turning to EPLC-272H, the relative viability in experiment [1] (first compound 0.02 µM) was determined as 1.14; in experiment [1] (first compound 0.06325 µM), 0.826; in experiment [1] (first compound 0.2 µM), 0.738; in experiment [1] (first compound 0.6325 µM), 0.67; in experiment [1] (first compound 2 µM) it was 0.574; in experiment [2] (first compound 0.253 µM), 0.35. Moreover, the relative viability came to 0.277 in experiment [2] (first compound 0.8 µM); 0.404 in experiment [2] (first compound 2.53 µM); 0.302 in experiment [2] (first compound 8 µM); 0.879 in experiment [3] (first compound 0.02 µM); 0.711 in experiment [3] (first compound 0.06325 µM); 0.557 in experiment [3] (first compound 0.2 µM). Moreover, the relative viability in experiment [3] (first compound 0.6325 µM) stood at 0.471; in experiment [3] (first compound 2 µM) it was 0.293; in experiment [4] (first compound 0.02 µM), 0.416; in experiment [4] (first compound 0.06325 µM) it was 0.337; in experiment [4] (first compound 0.2 µM) it was 0.284; in experiment [4] (first compound 0.6325 µM), 0.3. Moreover, the relative viability in experiment [4] (first compound 2 µM) is 0.241.
With H3255, the relative viability in experiment [1] (first compound 0.02 µM) stood at 0.883; in experiment [1] (first compound 0.06325 µM), 0.927; in experiment [1] (first compound 0.2 µM) it was 0.86; in experiment [1] (first compound 0.6325 µM), 0.621; in experiment [1] (first compound 2 µM) it was 0.648; in experiment [2] (first compound 0.253 µM), 0.316. Further, the relative viability in experiment [2] (first compound 0.8 µM) was 0.434; in experiment [2] (first compound 2.53 µM), 0.404; in experiment [2] (first compound 8 µM) it was 0.338; in experiment [3] (first compound 0.02 µM) it was 0.596; in experiment [3] (first compound 0.06325 µM), 0.532; in experiment [3] (first compound 0.2 µM) it was 0.545. Further, the relative viability in experiment [3] (first compound 0.6325 µM) was 0.525; in experiment [3] (first compound 2 µM), 0.497; in experiment [4] (first compound 0.02 µM), 0.659; in experiment [4] (first compound 0.06325 µM), 0.45; in experiment [4] (first compound 0.2 µM), 0.409; in experiment [4] (first compound 0.6325 µM), 0.42. The relative viability in experiment [4] (first compound 2 µM) was determined as 0.533.
On to HARA, for which the relative viability in experiment [1] (first compound 0.02 µM) came to 1.16; in experiment [1] (first compound 0.06325 µM), 1.08; in experiment [1] (first compound 0.2 µM) it was 1.1; in experiment [1] (first compound 0.6325 µM), 1.1; in experiment [1] (first compound 2 µM), 0.942; in experiment [2] (first compound 0.253 µM) it was 0.271. Moreover, the relative viability in experiment [2] (first compound 0.8 µM) came to 0.248; in experiment [2] (first compound 2.53 µM), 0.247; in experiment [2] (first compound 8 µM) it was 0.235; in experiment [3] (first compound 0.02 µM), 0.762; in experiment [3] (first compound 0.06325 µM), 0.853; in experiment [3] (first compound 0.2 µM), 0.779. Also, the relative viability amounted to 0.519 in experiment [3] (first compound 0.6325 µM); 0.662 in experiment [3] (first compound 2 µM); 0.375 in experiment [4] (first compound 0.02 µM); 0.432 in experiment [4] (first compound 0.06325 µM); 0.314 in experiment [4] (first compound 0.2 µM); 0.376 in experiment [4] (first compound 0.6325 µM). Further, the relative viability in experiment [4] (first compound 2 µM) was 0.348.
Consider HCC-15, for which the relative viability in experiment [1] (first compound 0.02 µM) came out at 1.19; in experiment [1] (first compound 0.06325 µM) it was 0.98; in experiment [1] (first compound 0.2 µM), 0.956; in experiment [1] (first compound 0.6325 µM) it was 0.869; in experiment [1] (first compound 2 µM), 0.998; in experiment [2] (first compound 0.253 µM), 0.497. Also, the relative viability in experiment [2] (first compound 0.8 µM) is 0.453; in experiment [2] (first compound 2.53 µM), 0.499; in experiment [2] (first compound 8 µM) it was 0.472; in experiment [3] (first compound 0.02 µM), 0.799; in experiment [3] (first compound 0.06325 µM), 0.723; in experiment [3] (first compound 0.2 µM) it was 0.62. In addition, the relative viability in experiment [3] (first compound 0.6325 µM) worked out at 0.495; in experiment [3] (first compound 2 µM) it was 0.44; in experiment [4] (first compound 0.02 µM) it was 0.777; in experiment [4] (first compound 0.06325 µM) it was 0.731; in experiment [4] (first compound 0.2 µM), 0.638; in experiment [4] (first compound 0.6325 µM), 0.572. Besides, in experiment [4] (first compound 2 µM), the relative viability was determined as 0.501.
